11 compounds from ChEMBL document CHEMBL1135698, “Synthesis, antitumor activity, molecular modeling, and DNA binding properties of a new series of imidazonaphthalimides” (J Med Chem, 2002) can be followed below.

What all share (format): functional, cell-based
Assay [1] concerns HT-29. The assay can be described thus: In vitro concentration required to reduce cell number to 50% in human colon carcinoma (HT-29) culture.
In assay [2] the test system is HeLa. The experiment in a line: In vitro concentration required to reduce cell number to 50% in human cervical carcinoma (HeLa) culture.
Assay [3] concerns PC-3. The assay can be described thus: In vitro concentration required to reduce cell number to 50% in human postrate carcinoma (PC-3) culture.

The structures appear in SMILES notation. pIC50: −log10 of the molar value. A value given as a limit tells only on which side of the number the result lay.

For `O=C1c2cccc3cccc(c23)C(=O)N1CCNCCCNCCN1C(=O)c2cccc3cccc(c23)C1=O` [ELINAFIDE], the negative-log IC50 (pIC50) in assay [1] was 7.77; in assay [2], 7.15; in assay [3], 6.49.

`Cc1nc2cc3c4c(cccc4c2[nH]1)C(=O)N(CCN(C)CCCN(C)CCN1C(=O)c2cccc4c2c(cc2nc(C)[nH]c24)C1=O)C3=O`: the values for the pIC50 in assay [1], in assay [2] and in assay [3] were 6.49, 6.10 and 5.49, respectively.

On to `Cc1nc2c(cc3c4c(cccc42)C(=O)N(CCNCCCNCCN2C(=O)c4cccc5c4c(cc4nc(C)[nH]c45)C2=O)C3=O)[nH]1`, for which the pIC50 was 5.07 in assay [1], 5.08 in assay [2] and less than 4.00 in assay [3].

As to `Cc1nc2c(cc3c4c(cccc42)C(=O)N(CCNCCNCCN2C(=O)c4cccc5c4c(cc4nc(C)[nH]c45)C2=O)C3=O)[nH]1`, the pIC50 in assay [1] was 5.97; in assay [2], 5.46; in assay [3], less than 4.00.

In the case of `Cc1nc2c(cc3c4c(cccc42)C(=O)N(CCN2CCCC2)C3=O)[nH]1`, the pIC50 in assay [1] was 5.51; in assay [2], 5.22; in assay [3], 5.37.

With `Cc1nc2cc3c4c(cccc4c2[nH]1)C(=O)N(CCN(C)C)C3=O`, the figures for the pIC50 in assay [1], in assay [2] and in assay [3] were 6.03, 5.63 and 4.98, respectively.

Turning to `Cc1nc2cc3c4c(cccc4c2[nH]1)C(=O)N(CCN(C)CCN(C)CCN1C(=O)c2cccc4c2c(cc2nc(C)[nH]c24)C1=O)C3=O`, the figures for the pIC50 in assay [1], in assay [2] and in assay [3] were 5.42, 5.06 and less than 4.00, respectively.

Take `CN(C)CCN1C(=O)c2cccc3cc(N)cc(c23)C1=O` [AMONAFIDE]: the pIC50 in assay [1] is 5.33; in assay [2], 5.56; in assay [3] it was 5.20.

As to `Cc1nc2c(cc3c4c(cccc42)C(=O)N(CCCNCCNCCCN2C(=O)c4cccc5c4c(cc4nc(C)[nH]c45)C2=O)C3=O)[nH]1`, the negative logarithm of the IC50 (pIC50) in assay [1] is 4.82; in assay [2], 5.06; in assay [3], 3.13.

Consider `Cc1nc2cc3c4c(cccc4c2[nH]1)C(=O)N(CCCN(C)CCCN1C(=O)c2cccc4c2c(cc2nc(C)[nH]c24)C1=O)C3=O`, for which the pIC50 in assay [1] was less than 4.00; in assay [2], less than 4.00; in assay [3], 4.44.

For the compound `Cc1nc2cc3c4c(cccc4c2[nH]1)C(=O)N(CCN(C)CCN1C(=O)c2cccc4c2c(cc2nc(C)[nH]c24)C1=O)C3=O`, the pIC50 in assay [1] is 4.76; in assay [2] it was 5.35; in assay [3] it was less than 4.00.

The pIC50 is −log10 of the IC50, conventionally taken in molar units. A high value points to a small IC50.
